Source: patent US7951805B2, “Heterocyclic derivatives and their use as mediators of stearoyl-CoA desaturase” (Xenon Pharmaceuticals Inc., priority 2004, dated 2011)

In the case of Cl.O=C(NCCC1CC1)c1ccc(N2CCC(Nc3ccccc3C(F)(F)F)CC2)nn1, the melting point is reported as 158 to 163 °C.
Cl.O=C(NCCCC1CC1)c1ccc(N2CCC(Nc3ccccc3C(F)(F)F)CC2)nn1 gave a melting point of 117 to 121 °C.
Molecule Cl.O=C(NCCC1CC1)c1ccc(N2CCC(Nc3ccc(F)cc3C(F)(F)F)CC2)nn1 has a melting point of 134 to 137 °C.
CCCCCNC(=O)c1ccc(N2CCC(Nc3ccc(F)cc3C(F)(F)F)CC2)nn1.Cl gave a melting point of 136 to 139 °C.
In the case of Cl.O=C(NCCCC1CC1)c1ccc(N2CCC(Nc3ccc(F)cc3C(F)(F)F)CC2)nn1, the melting point is reported as 143 to 147 °C.
With O=C(NCCCC1CC1)c1ccc(N2CCC(N3C(=O)C(F)(F)c4ccccc43)CC2)nn1 the melting point was 51 to 53 °C.
